The EC50 is the concentration giving half of the maximal effect.

Values after ≈ are worked out from the molar mass of the structure shown.

One test deals with Trifolium repens. Briefly: Herbicidal activity against Trifolium repens measured after 14 days relative to control. The format is functional, organism-based.
Conditions: not given
Take `CSc1nn(C)c(NCCCN=C=S)c1C#N`: the Activity entry was “Dose-dependent effect”.
The same measure, in the same setting: the entry for `N#Cc1c(SCc2ccccc2)nn(-c2ccccc2)c1NCCCN=C=S` is “Dose-dependent effect”.

The test is the same for the next values; noted with them: 336 h.
Molecule `CCOC(=O)c1ccccc1S(=O)(=O)NC(=O)Nc1nc(Cl)cc(OC)n1` [CHLORIMURON ETHYL] displayed an EC50 of 9.98 µg/mL (≈ 24.1 µM).
On the same count and under the same terms, the figure for `CSc1nn(C)c(NCCCN=C=S)c1C#N` is 67.4 µg/mL (≈ 252 µM); for `N#Cc1c(SCc2ccccc2)nn(-c2ccccc2)c1NCCCN=C=S` it is 67.7 µg/mL (≈ 167 µM).

A further test relates to Cyperus iria. The experiment in a line: Herbicidal activity against Cyperus iria at 75 g a.i./ha measured after 14 days relative to control.
Conditions: not given
The format is functional.
Molecule `CCOC(=O)c1c(SCc2ccccc2)nn(C)c1NCCCN=C=S` gave an Activity of 55.36%.
The same measure, in the same setting: the figure for `CCOC(=O)c1c(SCc2ccccc2)nn(-c2ccccc2)c1NCCCN=C=S` is 68.59%; for `CCOC(=O)c1c(SC)nn(C)c1NCCCN=C=S` it is 58.96%; for `CSc1nn(C)c(NCCCN=C=S)c1C#N` it is 70.23%.
Still for that read-out and setting: for `C=CCN=C=S` [ALLYL ISOTHIOCYANATE] the value was 32.59%.
On the same count and under the same terms, for `N#Cc1c(SCc2ccccc2)nn(-c2ccccc2)c1NCCCN=C=S` the value was 86.53%; for `Cn1nc(SCc2ccccc2)c(C#N)c1NCCCN=C=S`, 42.56%.
In turn, `CCOC(=O)c1c(SC)nn(-c2ccccc2)c1NCCCN=C=S` showed an Activity of 60.23%.
Molecule `CSc1nn(-c2ccccc2)c(NCCCN=C=S)c1C#N` showed an Activity of 57.69%.

Another test concerns Trifolium repens. Briefly: Herbicidal activity against Trifolium repens at 15 g a.i./ha measured after 14 days relative to control. The class given is functional.
Conditions: not given
Turning to `CCOC(=O)c1ccccc1S(=O)(=O)NC(=O)Nc1nc(Cl)cc(OC)n1` [CHLORIMURON ETHYL], the Activity was 95.69%.

The subject of the next test is Echinochloa crus-galli. The experiment in a line: Herbicidal activity against Echinochloa crus-galli (barnyard grass) at 75 g a.i./ha measured after 14 days relative to control.
Conditions: not given
The class given is functional.
The molecule `CCOC(=O)c1c(SCc2ccccc2)nn(C)c1NCCCN=C=S` returned an Activity of 63.32%.
Same read-out and setting: the figure for `CCOC(=O)c1c(SCc2ccccc2)nn(-c2ccccc2)c1NCCCN=C=S` is 65.32%.
On the same count and under the same terms, for `CCOC(=O)c1c(SC)nn(C)c1NCCCN=C=S` the value was 52.32%; for `CSc1nn(C)c(NCCCN=C=S)c1C#N`, 78.69%.
As to `C=CCN=C=S` [ALLYL ISOTHIOCYANATE], the Activity is recorded as 25.86%.
Same read-out and setting: for `N#Cc1c(SCc2ccccc2)nn(-c2ccccc2)c1NCCCN=C=S` the value was 79.39%.
On the same count and under the same terms, for `Cn1nc(SCc2ccccc2)c(C#N)c1NCCCN=C=S` the value was 44.62%.
The same measure, in the same setting: the figure for `CCOC(=O)c1c(SC)nn(-c2ccccc2)c1NCCCN=C=S` is 58.93%; for `CSc1nn(-c2ccccc2)c(NCCCN=C=S)c1C#N` it is 54.62%.

The subject of the next test is Dactylis glomerata. Briefly: Herbicidal activity against Dactylis glomerata measured after 14 days relative to control. The format is functional, organism-based.
Conditions: not given
On to `CSc1nn(C)c(NCCCN=C=S)c1C#N`, for which the Activity entry was “Dose-dependent effect”.
Same read-out and setting: for `N#Cc1c(SCc2ccccc2)nn(-c2ccccc2)c1NCCCN=C=S` the value was “Dose-dependent effect”.

The same test, now with this note: 336 h.
In turn, `CCOC(=O)c1ccccc1S(=O)(=O)NC(=O)Nc1nc(Cl)cc(OC)n1` [CHLORIMURON ETHYL] came in with a half-maximal effective concentration (EC50) of 15.2 µg/mL (≈ 36.7 µM).
The same measure, in the same setting: for `CSc1nn(C)c(NCCCN=C=S)c1C#N` the value was 59.4 µg/mL (≈ 222 µM); for `N#Cc1c(SCc2ccccc2)nn(-c2ccccc2)c1NCCCN=C=S`, 62.4 µg/mL (≈ 154 µM).

A further test deals with Echinochloa crus-galli. Briefly: Herbicidal activity against Echinochloa crus-galli (barnyard grass) measured after 14 days relative to control. The class given is functional, organism-based.
Conditions: not given
On to `CSc1nn(C)c(NCCCN=C=S)c1C#N`, for which the Activity result is “Dose-dependent effect”.
Still for that read-out and setting: for `N#Cc1c(SCc2ccccc2)nn(-c2ccccc2)c1NCCCN=C=S` the value was “Dose-dependent effect”.

The test is the same for the next values; noted with them: 336 h.
`CCOC(=O)c1ccccc1S(=O)(=O)NC(=O)Nc1nc(Cl)cc(OC)n1` [CHLORIMURON ETHYL] gave a concentration giving a half-maximal response (EC50) of 10.7 µg/mL (≈ 25.7 µM).
As to `CSc1nn(C)c(NCCCN=C=S)c1C#N`, the response was half-maximal at 65.3 µg/mL (≈ 244 µM) (EC50).
Same read-out and setting: for `N#Cc1c(SCc2ccccc2)nn(-c2ccccc2)c1NCCCN=C=S` the value was 64.3 µg/mL (≈ 159 µM).

In another test the test system is Dactylis glomerata. Briefly: Herbicidal activity against Dactylis glomerata at 15 g a.i./ha measured after 14 days relative to control. The class given is functional.
Conditions: not given
In the case of `CCOC(=O)c1ccccc1S(=O)(=O)NC(=O)Nc1nc(Cl)cc(OC)n1` [CHLORIMURON ETHYL], the Activity is on record as 78.25%.

The next test concerns Trifolium repens. Briefly: Herbicidal activity against Trifolium repens at 75 g a.i./ha measured after 14 days relative to control. The class given is functional.
Conditions: not given
The molecule `CCOC(=O)c1c(SCc2ccccc2)nn(C)c1NCCCN=C=S` yielded an Activity of 45.12%.
On the same count and under the same terms, for `CCOC(=O)c1c(SCc2ccccc2)nn(-c2ccccc2)c1NCCCN=C=S` the value was 65.78%; for `CCOC(=O)c1c(SC)nn(C)c1NCCCN=C=S`, 62.39%.
Still for that read-out and setting: the figure for `CSc1nn(C)c(NCCCN=C=S)c1C#N` is 73.33%; for `C=CCN=C=S` [ALLYL ISOTHIOCYANATE] it is 13.33%.
Still for that read-out and setting: the figure for `N#Cc1c(SCc2ccccc2)nn(-c2ccccc2)c1NCCCN=C=S` is 75.57%; for `Cn1nc(SCc2ccccc2)c(C#N)c1NCCCN=C=S` it is 34.48%.
On to `CCOC(=O)c1c(SC)nn(-c2ccccc2)c1NCCCN=C=S`, for which the Activity came to 60.68%.
Same read-out and setting: the figure for `CSc1nn(-c2ccccc2)c(NCCCN=C=S)c1C#N` is 56.46%.

For another test, the system named is Cyperus iria. The experiment in a line: Herbicidal activity against Cyperus iria at 15 g a.i./ha measured after 14 days relative to control. The format is functional.
Conditions: not given
With `CCOC(=O)c1ccccc1S(=O)(=O)NC(=O)Nc1nc(Cl)cc(OC)n1` [CHLORIMURON ETHYL], the Activity was 92.23%.

The next test concerns Echinochloa crus-galli. Briefly: Herbicidal activity against Echinochloa crus-galli (barnyard grass) at 15 g a.i./ha measured after 14 days relative to control. The format is functional.
Conditions: not given
As to `CCOC(=O)c1ccccc1S(=O)(=O)NC(=O)Nc1nc(Cl)cc(OC)n1` [CHLORIMURON ETHYL], the Activity was 98.32%.

The subject of a further test is Dactylis glomerata. The experiment in a line: Herbicidal activity against Dactylis glomerata at 75 g a.i./ha measured after 14 days relative to control. The format is functional.
Conditions: not given
`CCOC(=O)c1c(SCc2ccccc2)nn(C)c1NCCCN=C=S` registered an Activity of 46.53%.
The same measure, in the same setting: the figure for `CCOC(=O)c1c(SCc2ccccc2)nn(-c2ccccc2)c1NCCCN=C=S` is 64.53%.
On to `CCOC(=O)c1c(SC)nn(C)c1NCCCN=C=S`, for which the Activity stood at 56.25%.
`CSc1nn(C)c(NCCCN=C=S)c1C#N` registered an Activity of 74.33%.
On the same count and under the same terms, for `C=CCN=C=S` [ALLYL ISOTHIOCYANATE] the value was 40.12%; for `N#Cc1c(SCc2ccccc2)nn(-c2ccccc2)c1NCCCN=C=S`, 79.26%.
Take `Cn1nc(SCc2ccccc2)c(C#N)c1NCCCN=C=S`: the Activity was found to be 31.25%.
The same measure, in the same setting: the figure for `CCOC(=O)c1c(SC)nn(-c2ccccc2)c1NCCCN=C=S` is 59.08%; for `CSc1nn(-c2ccccc2)c(NCCCN=C=S)c1C#N` it is 55.62%.

A further test concerns Cyperus iria. Briefly: Herbicidal activity against Cyperus iria measured after 14 days relative to control.
Conditions: not given
The format is functional, organism-based.
On to `CSc1nn(C)c(NCCCN=C=S)c1C#N`, for which the Activity entry was “Dose-dependent effect”.
Same read-out and setting: the entry for `N#Cc1c(SCc2ccccc2)nn(-c2ccccc2)c1NCCCN=C=S` is “Dose-dependent effect”.

Still in this test, the particulars now being: 336 h.
`CCOC(=O)c1ccccc1S(=O)(=O)NC(=O)Nc1nc(Cl)cc(OC)n1` [CHLORIMURON ETHYL] returned a concentration for a half-maximal effect (EC50) of 12.9 µg/mL (≈ 31.1 µM).
Still for that read-out and setting: for `CSc1nn(C)c(NCCCN=C=S)c1C#N` the value was 64.9 µg/mL (≈ 243 µM); for `N#Cc1c(SCc2ccccc2)nn(-c2ccccc2)c1NCCCN=C=S`, 65.8 µg/mL (≈ 162 µM).

The values above are taken from ChEMBL document CHEMBL3046919, “Synthesis and herbicidal activity of substituted pyrazole isothiocyanates” (Molecules, 2012).
